# PubChem BioAssay AID1919009 (Molecular Pharmacology Branch, DTP, NCI, 2023)
# Test system: K24384-001-R-PDC complex spheroid growth
# Assay: Anticancer human tumor K24384-001-R-PDC patient-derived pancreatic adenocarcinoma cell line growth inhibition [AhR]
# Details: for IC50: curve of first compound; for viability, T/C: stronger effect = lower value
# Method in brief: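 Agents were dosed in half-log steps down from roughly clinical Cmax, or from 10 microM where Cmax was unknown, alone and with AhR antagonists. Read-out: percent test/control growth of tumor spheroids containing HUVEC and MSC stromal cells.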
# [1] = second compound 0.1 µM, first compound 0.0316 µM
# [2] = second compound 0.1 µM, first compound 0.1 µM
# [3] = second compound 0.1 µM, first compound 0.316 µM
# [4] = second compound 0.1 µM, first compound 1 µM
# [5] = second compound 0.1 µM, first compound 3.16 µM
# [6] = second compound 0.1 µM, first compound 10 µM
# [7] = second compound 0.316 µM, first compound 0.0316 µM
# [8] = second compound 0.316 µM, first compound 0.1 µM
# [9] = second compound 0.316 µM, first compound 0.316 µM
# [10] = second compound 0.316 µM, first compound 1 µM
# [11] = second compound 0.316 µM, first compound 3.16 µM
# [12] = second compound 0.316 µM, first compound 10 µM
# [13] = second compound 1 µM, first compound 0.0316 µM
# [14] = second compound 1 µM, first compound 0.1 µM
# [15] = second compound 1 µM, first compound 0.316 µM
# [16] = second compound 1 µM, first compound 1 µM
# [17] = second compound 1 µM, first compound 3.16 µM
# [18] = second compound 1 µM, first compound 10 µM
# [19] = second compound 3.16 µM, first compound 0.0316 µM
# [20] = second compound 3.16 µM, first compound 0.1 µM
# [21] = second compound 3.16 µM, first compound 0.316 µM
# [22] = second compound 3.16 µM, first compound 1 µM
# [23] = second compound 3.16 µM, first compound 3.16 µM
# [24] = second compound 3.16 µM, first compound 10 µM
# [25] = second compound 10 µM, first compound 0.0316 µM
# [26] = second compound 10 µM, first compound 0.1 µM
# [27] = second compound 10 µM, first compound 0.316 µM
# [28] = second compound 10 µM, first compound 1 µM
# [29] = second compound 10 µM, first compound 3.16 µM
# [30] = second compound 10 µM, first compound 10 µM
# 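For viability, T/C in this document: percent of DMSO vehicle-treated spheroid viability set as 100%.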
IC50 (second compound 0.1 µM) [nM],IC50 (second compound 0.316 µM) [nM],IC50 (second compound 1 µM) [nM],IC50 (second compound 3.16 µM) [nM],IC50 (second compound 10 µM) [nM],SMILES,"viability, T/C [1] [%]","viability, T/C [2] [%]","viability, T/C [3] [%]","viability, T/C [4] [%]","viability, T/C [5] [%]","viability, T/C [6] [%]","viability, T/C [7] [%]","viability, T/C [8] [%]","viability, T/C [9] [%]","viability, T/C [10] [%]","viability, T/C [11] [%]","viability, T/C [12] [%]","viability, T/C [13] [%]","viability, T/C [14] [%]","viability, T/C [15] [%]",further results
1740,1100,1500,951,< 31.6,Nc1ccccc1NC(=O)c1ccc(CNC(=O)OCc2cccnc2)cc1 + Cc1cncc(-c2nc(NCCc3c[nH]c4ccccc34)c3ncn(C(C)C)c3n2)c1,90,86.7,79.6,69.3,30.3,6.17,111,108,77.7,48.3,31,3.5,111,99.8,87,"viability, T/C [16]: 56.6%; viability, T/C [17]: 33.6%; viability, T/C [18]: 2.82%; viability, T/C [19]: 77.6%; viability, T/C [20]: 93.2%; viability, T/C [21]: 61.9%; viability, T/C [22]: 43%; viability, T/C [23]: 33.1%; viability, T/C [24]: 1.51%; viability, T/C [25]: 15.2%; viability, T/C [26]: 10.7%; viability, T/C [27]: 7.68%; viability, T/C [28]: 5.34%; viability, T/C [29]: 4.19%; viability, T/C [30]: 0.39%"
1840,2110,2350,2320,< 31.6,O=C(C=Cc1cccc(S(=O)(=O)Nc2ccccc2)c1)NO + Cc1cncc(-c2nc(NCCc3c[nH]c4ccccc34)c3ncn(C(C)C)c3n2)c1,107,120,108,74.5,28.2,4.88,139,138,135,87.9,30.3,4.55,129,141,145,"viability, T/C [16]: 85.6%; viability, T/C [17]: 41.1%; viability, T/C [18]: 5.39%; viability, T/C [19]: 118%; viability, T/C [20]: 118%; viability, T/C [21]: 111%; viability, T/C [22]: 75.2%; viability, T/C [23]: 41.9%; viability, T/C [24]: 6.54%; viability, T/C [25]: 28.9%; viability, T/C [26]: 20.4%; viability, T/C [27]: 17.7%; viability, T/C [28]: 9.39%; viability, T/C [29]: 10.3%; viability, T/C [30]: 2.79%"
> 10000,> 10000,> 10000,> 10000,< 31.6,O=C(c1cc(Cc2n[nH]c(=O)c3ccccc23)ccc1F)N1CCN(C(=O)C2CC2)CC1 + Cc1cncc(-c2nc(NCCc3c[nH]c4ccccc34)c3ncn(C(C)C)c3n2)c1,128,135,140,96.3,78.5,82.5,155,157,143,117,106,90.5,137,132,142,"viability, T/C [16]: 98.5%; viability, T/C [17]: 128%; viability, T/C [18]: 114%; viability, T/C [19]: 106%; viability, T/C [20]: 119%; viability, T/C [21]: 135%; viability, T/C [22]: 119%; viability, T/C [23]: 119%; viability, T/C [24]: 111%; viability, T/C [25]: 17.7%; viability, T/C [26]: 14%; viability, T/C [27]: 13.2%; viability, T/C [28]: 13.9%; viability, T/C [29]: 10.4%; viability, T/C [30]: 8.74%"
